Test results from patent publication US20220362396A1, “AMINO-PYRAZINECARBOXAMIDE COMPOUNDS, CONJUGATES, AND USES THEREOF” (Silverback Therapeutics, Inc., priority 2018, published 2022).

Columns and labels:
[1] = system: TGFβ/SMAD Signaling Pathway SBE reporter cell line; test: TGFβ reporter assay, in vitro small molecule screening (luciferase); type: cell-based; details: TGFβ stimulation, luminescence
Method: TGFβ/SMAD Signaling Pathway SBE reporter cell line was obtained from BPS Bioscience. Cells were passed, expanded, and stored in liquid nitrogen as per the supplier's instructions with the exception that growth media is changed to DMEM-C with Geneticin (DMEM supplemented with 10% fetal bovine serum, 1×NEAA, 1 mM Pyruvate, 2 mM glutamine, 50 μg/mL penicillin, 50 U/mL streptomycin and 400 μg/mL of Geneticin). The assay media was MEM supplemented with 0.5% fetal bovine serum, 1×NEAA, 1 mM Pyruvate, 50 μg/mL penicillin and 50 U/mL streptomycin.
Test samples (at desired concentrations diluted in assay media) were added to a 96-well assay plate, 20 μL per well. Reporter cells were harvested from the tissue culture flasks by incubation in small quantity of PBS at 37° C. for two minutes after the media in the flask is removed and cells rinsed with PBS. Cells were counted and diluted in the assay media at approximately 0.5×10^6 cells/mL and then 80 μL/well of cells were added to the assay plate containing the 20 μL/well of test samples (or media only), and incubated for approximately 5-6 hours at 37° C. in a 5% CO2 humidified incubator. After that time, 15 μL of TGFβ diluted to 12 ng/mL in the assay media was added to the plate. Controls included TGFβ titration (from 50 to 0 ng/mL) without inhibitors, and media only (without cells, inhibitor or TGFβ). Plates were incubated at 37° C. in a 5% CO2 humidified incubator for 18 h. Luciferase substrate solution is subsequently added at 100 μL per well, incubated in the dark at room temperature for 15 min, and luminescence is measured using a luminometer. EC50 values and curve fits were obtained using Prism (GraphPad Software).

TGFBR2 = target: T1, TGFBR2 (Homo sapiens, UniProt P37173); test: TGFBR2 RBC assay (enzyme inhibition assay, Reaction Biology Corp.); type: biochemical
T1 construct: purchased Reaction Biology Corp
T1 sequence (P37173 23-567): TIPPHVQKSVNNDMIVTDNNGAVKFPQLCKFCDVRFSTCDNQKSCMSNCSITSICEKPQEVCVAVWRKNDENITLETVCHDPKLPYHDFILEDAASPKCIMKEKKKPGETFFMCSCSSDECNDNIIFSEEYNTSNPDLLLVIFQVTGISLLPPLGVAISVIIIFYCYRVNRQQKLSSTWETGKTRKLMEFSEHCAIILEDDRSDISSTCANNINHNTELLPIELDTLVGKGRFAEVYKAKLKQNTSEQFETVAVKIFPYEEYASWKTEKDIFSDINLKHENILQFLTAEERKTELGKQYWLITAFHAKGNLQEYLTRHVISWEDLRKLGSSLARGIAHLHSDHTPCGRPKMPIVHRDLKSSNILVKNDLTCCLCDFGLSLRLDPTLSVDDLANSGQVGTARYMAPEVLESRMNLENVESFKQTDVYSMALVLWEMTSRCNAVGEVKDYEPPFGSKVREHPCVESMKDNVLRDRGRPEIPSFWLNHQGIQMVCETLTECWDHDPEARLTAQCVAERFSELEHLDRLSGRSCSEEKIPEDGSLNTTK
Method: Compounds of the disclosure were also assayed by Reaction Biology Corp. using the TGFBR2 RBC assay (enzyme inhibition assay). […] NT refers to not tested.

| Compound | EC50 [1] [nM] | IC50 (TGFBR2) [nM] |
| --- | --- | --- |
| Nc1ncc(-c2ccc(CCNC(=O)OCc3ccccc3)cc2)nc1C(=O)Nc1cnccc1N1CCOCC1 [Compound 1.1, Benzyl (4-(5-amino-6-((4-morpholinopyridin-3-yl)carbamoyl)pyrazin-2-yl)phenethyl)carbamate] | 100 to 1000 | < 50 |
| Nc1ncc(-c2ccc(CCCNC(=O)OCc3ccccc3)cc2)nc1C(=O)Nc1cnccc1N1CCOCC1 [Compound 1.2] | 100 to 1000 | < 50 |
| NCCCc1ccc(-c2cnc(N)c(C(=O)Nc3cnccc3N3CCOCC3)n2)cc1 [Compound 2.1, 3-Amino-6-(4-(3-aminopropyl)phenyl)-N-(4-morpholinopyridin-3-yl)pyrazine-2-carboxamide] | 50 to 100 | < 50 |
| Cc1nccn1-c1ccncc1NC(=O)c1nc(-c2ccc(CCNC(=O)OCc3ccccc3)cc2)cnc1N [Compound 3.1, Benzyl (4-(5-amino-6-((4-(2-methyl-1H-imidazol-1-yl)pyridin-3-yl)carbamoyl)pyrazin-2-yl)phenethyl)carbamate] | 100 to 1000 | < 50 |
| Cc1nccn1-c1ccncc1NC(=O)c1nc(-c2ccc(CCN)cc2)cnc1N [Compound 4.1, 3-Amino-6-(4-(2-aminoethyl)phenyl)-N-(4-(2-methyl-1H-imidazol-1-yl)pyridin-3-yl)pyrazine-2-carboxamide] | 100 to 1000 | < 50 |
| Nc1ncc(-c2ccc(CCNC(=O)OCc3ccccc3)cc2)nc1C(=O)Nc1cnccc1-c1ccncc1 [Compound 5.1, Benzyl (4-(6-([4,4′-bipyridin]-3-ylcarbamoyl)-5-aminopyrazin-2-yl)phenethyl)carbamate] | 100 to 1000 | < 50 |
| NCCc1ccc(-c2cnc(N)c(C(=O)Nc3cnccc3N3CCOCC3)n2)cc1 [Compound 6] | 50 to 100 | < 50 |
| NCc1ccc(-c2cnc(N)c(C(=O)Nc3cnccc3N3CCOCC3)n2)cc1 [Compound 7] | 50 to 100 | < 50 |
| NCCc1ccc(-c2cnc(N)c(C(=O)Nc3cnccc3N3CCOCC3CO)n2)cc1 (stereo not shown) [Compound 8] | 100 to 1000 |  |
| N#Cc1cnccc1-c1ccncc1NC(=O)c1nc(-c2ccc(CCNC(=O)OCc3ccccc3)cc2)cnc1N [Compound 9] | 100 to 1000 |  |
| N#Cc1cnccc1-c1ccncc1NC(=O)c1nc(-c2ccc(CCNC(=O)OCc3ccccc3)cc2)cnc1N [Compound 10] | > 1000 |  |
| Nc1ncc(-c2ccc(CCNC(=O)[C@H](CCC(=O)O)NC(=O)OCc3ccccc3)cc2)nc1C(=O)Nc1cnccc1N1CCOCC1 [Compound 11] | > 1000 |  |
| CC(C)(C)OC(=O)N[C@@H](CCCCN)C(=O)NCCc1ccc(-c2cnc(N)c(C(=O)Nc3cnccc3N3CCOCC3)n2)cc1 [Compound 12] | 100 to 1000 |  |
| N#Cc1ncccc1-c1ccncc1NC(=O)c1nc(-c2ccc(CCNC(=O)OCc3ccccc3)cc2)cnc1N [Compound 13] | > 1000 |  |
| COc1ccc(-c2ccncc2NC(=O)c2nc(-c3ccc(CCNC(=O)OCc4ccccc4)cc3)cnc2N)cc1 [Compound 14] | > 1000 | > 1000 |
| N#Cc1ccc(-c2ccncc2NC(=O)c2nc(-c3ccc(CCNC(=O)OCc4ccccc4)cc3)cnc2N)cc1 [Compound 15] | 100 to 1000 | 100 to 1000 |
| Nc1ncc(-c2ccc(OCCNC(=O)OCc3ccccc3)cc2)nc1C(=O)Nc1cnccc1N1CCOCC1 [Compound 45] |  | < 50 |
| CC(=O)c1ccc(C(=O)NCCc2ccc(-c3cnc(N)c(C(=O)Nc4cnccc4N4CCOCC4)n3)cc2)cc1 [Compound 58] | 100 to 1000 |  |
| Cc1cc(CNC(=O)OCc2ccccc2)ccc1-c1cnc(N)c(C(=O)Nc2cnccc2N2CCOCC2)n1 [Compound 60] | 100 to 1000 |  |
| COCCNc1ccncc1NC(=O)c1nc(-c2ccc(CCNC(=O)OCc3ccccc3)cc2)cnc1N [Compound 99] | > 1000 |  |
| COCCNc1ccncc1NC(=O)c1nc(-c2ccc(CCN)cc2)cnc1N [Compound 100] | > 1000 |  |
| NCCc1ccc(-c2cnc(N)c(C(=O)Nc3cnccc3-n3ccnc3-c3ccccc3)n2)cc1 [Compound 145] |  | 100 to 1000 |
| Nc1ncc(-c2ccc(CCNC(=O)OCc3ccccc3)cc2)nc1C(=O)Nc1cnccc1-n1ccnc1-c1ccccc1 [Compound 146] |  | 100 to 1000 |

| Compound | EC50 [1] [nM] | IC50 (TGFBR2) [nM] |
| --- | --- | --- |
| NCCc1ccc(-c2cnc(N)c(C(=O)Nc3cncc(-c4ccccc4[N+](=O)[O-])c3)n2)cc1 [Compound 147] |  | 50 to 100 |
| Nc1ncc(-c2ccc([C@@H]3CNC[C@H]3C(=O)O)cc2)nc1C(=O)Nc1cnccc1N1CCOCC1 [Compound 231] | > 1000 |  |
| Nc1ncc(-c2ccc(N[C@@H]3CCNC3)cc2)nc1C(=O)Nc1cnccc1N1CCOCC1 [Compound 281] | 100 to 1000 |  |
| CC(C)(C)OC(=O)N1CC[C@@H](Nc2ccc(-c3cnc(N)c(C(=O)Nc4cnccc4N4CCOCC4)n3)cc2)C1 [Compound 282] | 100 to 1000 |  |
| Nc1ncc(-c2ccc(N3CCC[C@@H](N)C3)cc2)nc1C(=O)Nc1cnccc1N1CCOCC1 [Compound 283] | 100 to 1000 |  |
| CC(C)(C)OC(=O)N[C@@H]1CCCN(c2ccc(-c3cnc(N)c(C(=O)Nc4cnccc4N4CCOCC4)n3)cc2)C1 [Compound 284] | 100 to 1000 |  |
| Nc1ncc(-c2ccc(N3CCC[C@H](N)C3)cc2)nc1C(=O)Nc1cnccc1N1CCOCC1 [Compound 285] | 50 to 100 |  |
| CC(C)(C)OC(=O)N[C@H]1CCCN(c2ccc(-c3cnc(N)c(C(=O)Nc4cnccc4N4CCOCC4)n3)cc2)C1 [Compound 286] | 100 to 1000 |  |
| CC(S)CCC(=O)NCC(C)Oc1ccc(-c2cnc(N)c(C(=O)Nc3cnccc3N3CCOCC3)n2)cc1 (stereo not shown) [Compound 287] | 100 to 1000 |  |
| CC(CNC(=O)CCC(C)(C)S)Oc1ccc(-c2cnc(N)c(C(=O)Nc3cnccc3N3CCOCC3)n2)cc1 (stereo not shown) [Compound 288] | 100 to 1000 |  |
| Nc1ncc(-c2ccc(N3CCN(CCO)CC3)cc2)nc1C(=O)Nc1cnccc1N1CCOCC1 [Compound 289] | 50 to 100 |  |
| CN(C)C1CCN(c2ccc(-c3cnc(N)c(C(=O)Nc4cnccc4N4CCOCC4)n3)cc2)CC1 [Compound 290] | < 50 |  |
| CN(c1ccc(-c2cnc(N)c(C(=O)Nc3cnccc3N3CCOCC3)n2)cc1)C1CCN(C(=O)OC(C)(C)C)CC1 [Compound 291] | 100 to 1000 |  |
| NCCN(CCO)c1ccc(-c2cnc(N)c(C(=O)Nc3cnccc3N3CCOCC3)n2)cc1 [Compound 292] | 100 to 1000 |  |
| Nc1ncc(-c2ccc(N(CCO)CCNC(=O)OCc3ccccc3)cc2)nc1C(=O)Nc1cnccc1N1CCOCC1 [Compound 293] | 100 to 1000 |  |
| COC(=O)[C@@H](C)N(C)c1ccc(-c2cnc(N)c(C(=O)Nc3cnccc3N3CCOCC3)n2)cc1 [Compound 294] | 100 to 1000 |  |
| C[C@H](C(=O)O)N(C)c1ccc(-c2cnc(N)c(C(=O)Nc3cnccc3N3CCOCC3)n2)cc1 [Compound 295] | 100 to 1000 |  |
| C[C@H](CO)N(C)c1ccc(-c2cnc(N)c(C(=O)Nc3cnccc3N3CCOCC3)n2)cc1 [Compound 296] | < 50 |  |
| COC(=O)[C@H](C)N(C)c1ccc(-c2cnc(N)c(C(=O)Nc3cnccc3N3CCOCC3)n2)cc1 [Compound 297] | 100 to 1000 |  |
| C[C@@H](C(=O)O)N(C)c1ccc(-c2cnc(N)c(C(=O)Nc3cnccc3N3CCOCC3)n2)cc1 [Compound 298] | 100 to 1000 |  |
| CN(c1ccc(-c2cnc(N)c(C(=O)Nc3cnccc3N3CCOCC3)n2)cc1)[C@@H]1CCN(C(=O)OC(C)(C)C)C1 [Compound 300] | 100 to 1000 |  |
| CN(c1ccc(-c2cnc(N)c(C(=O)Nc3cnccc3N3CCOCC3)n2)cc1)C1CCNCC1 [Compound 301] | 50 to 100 |  |
